Data reported in PubChem BioAssay (NCI).
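Compound exposure: 48 hours, 5 concentrations, 96-well plates. At the TGI there is no net growth.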

How the values were obtained:
Experiment in all cases: growth of human tumour cells (NCI), 48 h
786-0 renal = test system: 786-0 renal
A498 renal = test system: A498 renal
KM12 colon = test system: KM12 colon
M14 melanoma = test system: M14 melanoma
OVCAR-5 ovarian = test system: OVCAR-5 ovarian
PC-3 prostate = test system: PC-3 prostate
SF-268 CNS = test system: SF-268 CNS
SF-295 CNS = test system: SF-295 CNS
SNB-19 CNS = test system: SNB-19 CNS

Compound | TGI (786-0 renal) | TGI (A498 renal) | TGI (KM12 colon) | TGI (M14 melanoma) | TGI (OVCAR-5 ovarian) | TGI (PC-3 prostate) | TGI (SF-268 CNS) | TGI (SF-295 CNS) | TGI (SNB-19 CNS)
CC(C)[Si]1(C(C)C)OCC2OC(n3cnc4c(N)ncnc43)C(N)C2O[Si](C(C)C)(C(C)C)O1 (stereo not given) | 28.3 µM | 45.5 µM | 16.6 µM | 26.3 µM | 67.6 µM | > 43 µM | 41.4 µM | 21.5 µM | 97.5 µM
Clc1ncc(C(Cl)(Cl)Cl)nc1-c1ccccc1 | 5.77 µM |  | 3.43 µM | 5.88 µM | 30.9 µM | 3.38 µM | 5.09 µM | 13.5 µM | 3.19 µM
CSc1nc(Br)nc2c1ncn2C1CC(Oc2ccc(C)cc2)C(COc2ccc(C)cc2)O1 (stereo not given) | > 100 µM | > 100 µM | > 100 µM | > 100 µM | > 100 µM | > 100 µM | > 100 µM | > 100 µM | 73.8 µM
COC(=O)CCc1ccc2c(c1)CC1(C2)Cc2ccc(CCC(=O)OC)cc2C1 | > 100 µM | > 100 µM | > 100 µM | > 100 µM | > 100 µM | > 100 µM |  | > 100 µM | 
BrCC[P+](c1ccccc1)(c1ccccc1)c1ccccc1 | 10.4 µM | 41.3 µM | 17.1 µM | 18 µM | 26.8 µM | 17.3 µM | 8.25 µM | > 100 µM | 62.1 µM
O=C1O/C(=C\c2ccc(O)cc2)C(c2ccc(O)c(Cl)c2)=C1Br | 31.6 µM | 34.6 µM | 30.3 µM | 26.4 µM | 35.4 µM | 23.7 µM | 45.2 µM | 28.9 µM | 62.7 µM
CN(C)CCn1c(=O)c2ccc(NCCNCCO)c3c(=O)c4cc(O)ccc4n(c1=O)c23 | 13.2 µM | 25.7 µM | 26.6 µM | 13.6 µM | 16.1 µM | 25.1 µM | 14.9 µM | 21.1 µM | 10.8 µM
C=CCOn1c(C=C)nc2c(C)cccc21 | 5.83 µM | 17.9 µM | 13 µM | 12.3 µM | 23.3 µM | 12.1 µM | 26.5 µM | 21 µM | 21.5 µM
CCCCC(=C=C1CCCCC1O)C1CCCN1C(=O)OC(C)(C)C (stereo not given) | 29.6 µM |  | 31.5 µM | 30.9 µM | 29.4 µM | 29.6 µM | 32.7 µM | 28 µM | 31.1 µM
COc1cc([C@@H]2c3cc4c(cc3[C@@H](Nc3ccc(Cl)cc3C(=O)c3ccccc3Cl)[C@H]3COC(=O)[C@H]23)OCO4)cc(OC)c1OC | > 100 µM |  | 0.289 µM | > 100 µM | > 100 µM |  | > 100 µM | > 37.4 µM | 76.1 µM
COC(=O)c1ccc(OCc2ccc3nc(-c4ccccc4)c(Cl)nc3c2)cc1 | 48.9 µM | > 100 µM | > 100 µM | > 100 µM | > 100 µM | > 100 µM | > 100 µM | > 100 µM | > 100 µM
COc1cc2c(cc1OC)C1Cc3ccccc3CN1CCC2 (stereo not given) | > 100 µM | > 100 µM | > 100 µM | > 100 µM | > 100 µM | > 100 µM | > 100 µM | > 100 µM | > 100 µM
C=C(CCC(C(=O)O)C1CCC2(C)C3=C(CCC12C)C1(C)CCC(O)C(C)(C)C1CC3)C(C)C (stereo not given) | > 100 µM | 75.2 µM | 22.6 µM | > 100 µM | > 100 µM | > 100 µM | > 100 µM | > 100 µM | > 100 µM
c1ccc(COc2ncccc2C2SCCCS2)cc1 | > 100 µM | > 100 µM | > 100 µM | > 100 µM | > 100 µM | > 100 µM | > 100 µM | > 100 µM | > 100 µM
CCOc1cc(C=O)ccc1O | > 100 µM |  | > 100 µM | > 100 µM | > 100 µM | > 100 µM | > 100 µM | > 100 µM | > 100 µM
Cc1cnc2[nH]c(-c3ccccc3)cc(=O)c2c1 | > 100 µM |  | 13.9 µM | > 18 µM | > 100 µM | > 57.3 µM | > 100 µM |  | > 100 µM
c1ccc(C/C(=N\Nc2nc3ccccc3o2)c2ccccn2)cc1 | 0.136 µM | 1.69 µM | 6.67 µM | 0.992 µM |  | 5.68 µM | 0.921 µM | 3.25 µM | 20.5 µM
C=C1c2nc3ccccc3n2C=C(c2ccccc2)N1c1ccc(OC)cc1 | 56.8 µM | > 100 µM | 24.3 µM | 52.6 µM | > 100 µM | > 100 µM |  | 25.3 µM | 
CCOC(=O)C(Cc1c(-c2[nH]c3ccccc3c2CC(NC(=O)CNC(C)=O)C(=O)OCC)[nH]c2ccccc12)NC(=O)CNC(C)=O (stereo not given) |  | > 100 µM | > 100 µM | > 100 µM | > 100 µM | > 100 µM | > 100 µM | > 100 µM | > 100 µM
Cc1cccc(N2CCN(S(=O)(=O)c3ccc(Cl)cc3)C2=N)c1C | > 100 µM | > 100 µM | > 100 µM | > 100 µM | > 100 µM |  | > 100 µM | > 100 µM | > 100 µM
COC1(OC)/C(=C(\N)C=O)NC(C)(C)N1O | > 100 µM | > 100 µM | > 100 µM | > 100 µM | > 100 µM | > 100 µM |  | > 100 µM | > 100 µM
Cc1ccc(Nc2nnc3n2S(=O)(=O)c2cc(C)c(Cl)cc2S3)cc1 | 35.5 µM | 89.2 µM | > 100 µM | 47.4 µM | 74.8 µM | 27.3 µM | 18.4 µM | 25.7 µM | 
OCc1ccccc1OC1OC(CO)C(O)C(O)C1O (stereo not given) | > 100 µM | > 100 µM | > 100 µM | > 100 µM | > 100 µM | > 100 µM | > 100 µM | > 100 µM | 
